Source: patent US12336981B2, “Compounds and compositions for the inhibition of NAMPT” (Valo Health, Inc., priority 2010, dated 2025)
Several values for one entry are separate records, joined by “and”; a condition that tells them apart may be missing. Equal values may be shown once. Read-outs that look alike come from different tables or passages of the source.

What was measured:
[1] = molecular target: T1, NAMPT (Homo sapiens, UniProt P43490); assay: Biochemical inhibition assay: NAMPT enzymatic reaction, NMN quantified by mass spectrometry; settings: read-out: Biochem IC50
T1 construct: His tag; host or cells: E. coli
Procedure, shortened: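 Inhibition of E. coli-expressed His-tagged human NAMPT, measured as NMN formation by mass spectrometry after a 30 min room-temperature reaction containing 1 μM NAM, 100 μM PRPP and 2.5 mM ATP.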

[2] = system: A2780 cells; assay: In-vitro cell proliferation assay (SRB), A2780 cells; format: cell-based; settings: Homo sapiens, A2780, 72 h, A2780 cells, 72 hours, read-out: A2780 IC50
Procedure, shortened: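 Read-out is SRB absorbance at 570 nm on TCA-fixed cells after 72 hours of compound treatment at 37° C. in 5% CO2. Background from a media-only plate is subtracted, and % inhibition is interpolated between two tested concentrations.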

T1 sequence (P43490 whole entry): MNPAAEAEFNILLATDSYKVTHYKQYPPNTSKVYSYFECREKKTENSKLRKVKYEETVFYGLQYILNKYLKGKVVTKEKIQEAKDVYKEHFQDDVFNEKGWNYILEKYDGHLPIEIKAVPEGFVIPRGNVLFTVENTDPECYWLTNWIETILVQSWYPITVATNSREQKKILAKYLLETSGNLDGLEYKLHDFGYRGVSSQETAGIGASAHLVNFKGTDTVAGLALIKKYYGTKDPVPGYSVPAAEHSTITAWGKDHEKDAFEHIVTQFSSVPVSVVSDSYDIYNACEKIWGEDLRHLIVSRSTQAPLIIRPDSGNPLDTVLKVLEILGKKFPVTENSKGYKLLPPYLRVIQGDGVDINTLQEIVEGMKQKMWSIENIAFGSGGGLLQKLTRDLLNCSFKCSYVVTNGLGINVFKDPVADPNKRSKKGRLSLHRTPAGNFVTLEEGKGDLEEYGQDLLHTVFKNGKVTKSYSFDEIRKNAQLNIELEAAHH

Structure (SMILES) | IC50 ([1]; NAMPT enzymatic assay) | IC50 ([2]; SRB) [nM] | IC50 ([1]; NAMPT enzymatic reaction) [nM] | IC50 ([2]; SRB assay) [nM]
Cc1ccc(S(=O)(=O)c2ccc(CNC(=O)c3cc4ccncc4s3)cc2)c(C)c1 [N-({4-[(2,4-dimethylbenzene)sulfonyl]phenyl}methyl)thieno[2,3-c]pyridine-2-carboxamide] | 12 nM | 22.2 |  | 
O=C(NCc1ccc(S(=O)(=O)c2ccc(OC(F)(F)F)cc2)cc1)c1cnc2[nH]ncc2c1 | 34.6 nM | 22.3 |  | 
O=C(NCc1ccc(S(=O)(=O)N2CC3CCC(C2)O3)cc1)c1cc2ccncc2s1 [N-[(4-{8-oxa-3-azabicyclo[3.2.1]octane-3-sulfonyl}phenyl)methyl]thieno[2,3-c]pyridine-2-carboxamide] |  |  | 15 | 3
O=C(NCc1ccc(S(=O)(=O)Nc2ccccc2N2CCCCC2)cc1)c1cc2cnccc2[nH]1 [N-[(4-{[2-(piperidin-1-yl)phenyl]sulfamoyl}phenyl)methyl]-1H-pyrrolo[3,2-c]pyridine-2-carboxamide] |  |  | 72 | 8
Cc1cccc(S(=O)(=O)c2ccc(CNC(=O)c3ccc4nccn4c3)cc2)c1 [N-({4-[(3-methylbenzene)sulfonyl]phenyl}methyl)imidazo[1,2-a]pyridine-6-carboxamide] |  | 6.39 | 8.12 | 
COc1ccc(C(C)=O)cc1S(=O)(=O)c1ccc(CNC(=O)c2cc3cnccc3[nH]2)cc1 [N-({4-[(5-acetyl-2-methoxybenzene)sulfonyl]phenyl}methyl)-1H-pyrrolo[3,2-c]pyridine-2-carboxamide] |  |  | 20 | 6
O=C(NCc1ccc(S(=O)(=O)c2ccc3c(c2)OCCO3)cc1)c1cc2ccncc2s1 [N-{[4-(2,3-dihydro-1,4-benzodioxine-6-sulfonyl)phenyl]methyl}thieno[2,3-c]pyridine-2-carboxamide] |  |  | 4 | 2.7
COc1ccc(S(=O)(=O)c2ccc(CNC(=O)c3cc4cnccc4[nH]3)cc2)c(C)c1 [N-({4-[(4-methoxy-2-methylbenzene)sulfonyl]phenyl}methyl)-1H-pyrrolo[3,2-c]pyridine-2-carboxamide] |  |  | 24 | 24
O=C(NCc1ccc(S(=O)(=O)c2ccc(F)c(C(F)(F)F)c2)cc1)c1ccc2nccn2c1 | 4 nM | 1.7 |  | 
COc1ccc(C(C)(C)C)cc1S(=O)(=O)c1ccc(CNC(=O)c2ccc3nccn3c2)cc1 [N-({4-[(5-tert-butyl-2-methoxybenzene)sulfonyl]phenyl}methyl)imidazo[1,2-a]pyridine-6-carboxamide] | 29 nM | 6.77 |  | 
CCCCOc1cccc(F)c1S(=O)(=O)c1ccc(CNC(=O)c2cc3ccncc3o2)cc1 |  | 69.8 | 25.6 | 
COc1c(F)cccc1S(=O)(=O)c1ccc(CNC(=O)c2cc3cnccc3[nH]2)cc1 |  | 6.3 | 32.4 | 
CCc1cccc(S(=O)(=O)c2ccc(CNC(=O)c3cc4ccncc4o3)cc2)c1 [N-({4-[(3-ethylbenzene)sulfonyl]phenyl}methyl)furo[2,3-c]pyridine-2-carboxamide] |  | 6.5 | 8.7 | 
O=C(NCc1ccc(S(=O)(=O)c2ccc(-n3cccn3)cc2)cc1)c1cc2ccncc2o1 | 4.1 nM | 7.3 |  | 
Cc1cc(C)cc(S(=O)(=O)c2ccc(CNC(=O)c3cnc4[nH]ncc4c3)cc2)c1 |  | 6.1 | 10.4 | 
CC(=O)c1ccccc1S(=O)(=O)c1ccc(CNC(=O)c2cc3cnccc3[nH]2)cc1 [N-({4-[(2-acetylbenzene)sulfonyl]phenyl}methyl)-1H-pyrrolo[3,2-c]pyridine-2-carboxamide] |  |  | 6 | 4
CN(C)CCc1cccc(S(=O)(=O)c2ccc(CNC(=O)c3cc4cnccc4[nH]3)cc2)c1 | 29.2 nM | 22.3 |  | 
Cn1ncc2cccc(S(=O)(=O)c3ccc(CNC(=O)c4cc5ccncc5s4)cc3)c21 [N-{[4-(1-methyl-1H-indazole-7-sulfonyl)phenyl]methyl}thieno[2,3-c]pyridine-2-carboxamide] | 4.5 nM | 10.4 |  | 
COc1cc(C)cc(OC)c1S(=O)(=O)c1ccc(CNC(=O)c2cc3cnccc3[nH]2)cc1 [N-({4-[(2,6-dimethoxy-4-methylbenzene)sulfonyl]phenyl}methyl)-1H-pyrrolo[3,2-c]pyridine-2-carboxamide] |  |  | 16 | 10
CCOc1ccccc1S(=O)(=O)c1ccc(CNC(=O)c2cc3ccncc3o2)cc1 [N-({4-[(2-ethoxybenzene)sulfonyl]phenyl}methyl)furo[2,3-c]pyridine-2-carboxamide] |  | 6 | 65.9 | 
O=C(NCc1ccc(S(=O)(=O)c2cnn(-c3cccc(Cl)c3)c2)cc1)c1ccc2nccn2c1 [N-({4-[1-(3-chlorophenyl)-1H-pyrazole-4-sulfonyl]phenyl}methyl)imidazo[1,2-a]pyridine-6-carboxamide] | 14 nM | 6.4 |  | 
CN(C)c1ccc(S(=O)(=O)c2ccc(CNC(=O)c3cnc4[nH]ncc4c3)cc2)cn1 [N-({4-[6-(dimethylamino)pyridine-3-sulfonyl]phenyl}methyl)-1H-pyrazolo[3,4-b]pyridine-5-carboxamide] | 30.5 nM | 3.3 |  | 

Structure (SMILES) | IC50 ([1]; NAMPT enzymatic assay) | IC50 ([2]; SRB) [nM] | IC50 ([1]; NAMPT enzymatic reaction) [nM] | IC50 ([2]; SRB assay) [nM]
CCOc1ccc(S(=O)(=O)c2ccc(CNC(=O)c3cc4cnccc4[nH]3)cc2)cc1F |  | 5.4 | 20.5 | 
O=C(NCc1ccc(S(=O)(=O)c2cccc3cccnc23)cc1)c1ccc2nccn2c1 [N-{[4-(quinoline-8-sulfonyl)phenyl]methyl}imidazo[1,2-a]pyridine-6-carboxamide] | 9.8 nM | 5.5 |  | 
CCOc1ccc(S(=O)(=O)c2ccc(CNC(=O)c3cnc4nccn4c3)cc2)c(C)c1 [N-({4-[(4-ethoxy-2-methylbenzene)sulfonyl]phenyl}methyl)imidazo[1,2-a]pyrimidine-6-carboxamide] |  | 60.7 | 11.7 | 
O=C(NCc1ccc(S(=O)(=O)N2CCCCC2)cc1)c1cc2cccnc2s1 [N-{[4-(piperidine-1-sulfonyl)phenyl]methyl}thieno[2,3-b]pyridine-2-carboxamide] |  |  | 6150 | 14000
O=C(NCc1ccc(S(=O)(=O)c2cccc(C(F)(F)F)c2)cc1)c1cc2ccncc2s1 [N-[(4-{[3-(trifluoromethyl)benzene]sulfonyl}phenyl)methyl]thieno[2,3-c]pyridine-2-carboxamide] |  |  | 3 | 1
O=C(NCc1ccc(S(=O)(=O)Nc2ccc(Cl)cc2OC(F)(F)F)cc1)c1cc2cnccc2[nH]1 [N-[(4-{[4-chloro-2-(trifluoromethoxy)phenyl]sulfamoyl}phenyl)methyl]-1H-pyrrolo[3,2-c]pyridine-2-carboxamide] |  |  | 2 | 2
O=C(NCc1ccc(S(=O)(=O)c2cccc(N3CCOCC3)c2)cc1)c1cc2ccncc2s1 | 4 nM and 3.6 nM | 1.9 |  | 
CCCOc1ccc(S(=O)(=O)c2ccc(CNC(=O)c3cc4ccncc4s3)cc2)c(C)c1 [N-({4-[(2-methyl-4-propoxybenzene)sulfonyl]phenyl}methyl)thieno[2,3-c]pyridine-2-carboxamide] |  | 1.7 | 12.9 | 
O=C(NCc1ccc(NS(=O)(=O)c2ccccc2)cc1)c1cc2cnccc2[nH]1 [N-[(4-benzenesulfonamidophenyl)methyl]-1H-pyrrolo[3,2-c]pyridine-2-carboxamide] |  |  | 11 | 5
Cc1cncc(S(=O)(=O)c2ccc(CNC(=O)c3cnc4nccn4c3)cc2)n1 [N-{[4-(6-methylpyrazine-2-sulfonyl)phenyl]methyl}imidazo[1,2-a]pyrimidine-6-carboxamide] | 1 nM | 52.5 |  | 
N#Cc1ccc(S(=O)(=O)c2ccc(CNC(=O)c3cc4cnccc4[nH]3)cc2)cc1 [N-({4-[(4-cyanobenzene)sulfonyl]phenyl}methyl)-1H-pyrrolo[3,2-c]pyridine-2-carboxamide] |  | 25.1 | 11.1 | 
COc1c(C(F)(F)F)cccc1S(=O)(=O)c1ccc(CNC(=O)c2cc3ccncc3s2)cc1 | 9.4 nM | 12.8 |  | 
O=C(NCc1ccc(S(=O)(=O)c2cncc3ccccc23)cc1)c1cc2ccncc2s1 [N-{[4-(isoquinoline-4-sulfonyl)phenyl]methyl}thieno[2,3-c]pyridine-2-carboxamide] | 6.7 nM | 0.8 | 3 | 0.7
O=C(NCc1ccc(S(=O)(=O)c2ccccc2)cc1)c1nc2ccncc2s1 [N-{[4-(benzenesulfonyl)phenyl]methyl}-[1,3]thiazolo[5,4-c]pyridine-2-carboxamide] | 220 nM | > 10000 |  | 
CCOc1cc(Cl)ccc1S(=O)(=O)c1ccc(CNC(=O)c2cnc3nccn3c2)cc1 |  | 4.5 | 2 | 
O=C(NCc1ccc(S(=O)(=O)N2CCCCC2)cc1)c1ccc2ncsc2c1 [N-{[4-(piperidine-1-sulfonyl)phenyl]methyl}-1,3-benzothiazole-6-carboxamide] |  |  | 9 | 10
COc1ccc(S(=O)(=O)c2ccc(CNC(=O)c3cnc4[nH]ncc4c3)cc2)cc1 |  | 14.3 | 20.9 | 
COc1cccc(C)c1NS(=O)(=O)c1ccc(CNC(=O)c2cc3cnccc3[nH]2)cc1 [N-({4-[(2-methoxy-6-methylphenyl)sulfamoyl]phenyl}methyl)-1H-pyrrolo[3,2-c]pyridine-2-carboxamide] |  |  | 6 | 12400
Cc1cc(C(F)(F)F)ccc1S(=O)(=O)c1ccc(CNC(=O)c2cc3ccncc3s2)cc1 | 10.3 nM | 24.2 |  | 
CCCCOc1cccc(F)c1S(=O)(=O)c1ccc(CNC(=O)c2cc3cnccc3[nH]2)cc1 |  | 5.6 | 8.8 | 
COc1ccc(Cl)cc1S(=O)(=O)c1ccc(CNC(=O)c2cnc3[nH]ncc3c2)cc1 |  | 8.1 | 49.2 | 
